Measured values: patent publication US6696081B2, “Carbohydrate based lipid compositions and supramolecular structures comprising same” (Duke University, priority 2000, dated 2004)

Test system: PLA2 (naja naja venom)
Test: pH-stat phospholipase assay
Format: biochemical
Experimental: The pH-stat phospholipase assays were performed on a Metrohm 718 STAT Titrino pH-stat following a procedure described by Yuan et al. (Yuan, W.; Berman, R. J.; Gelb, M. H. J. Am. Chem. Soc. 1987, 109, 8071-8081; Deems, R. A.; Dennis, E. A. Methods Enzym 1981, 71, 703-710.) Before the assays were performed, the pH-stat was calibrated at pH 7 and pH 4. The NaOH (0.01 N) titrant was standardized by titration to pH 8.65 with a weighed amount of potassium hydrogen-phthalate in 40 mL of Dl water. The lipid was transferred to a 5 mL round bottom flask in methylene chloride/methanol (98/2) and the solvent was removed by rotoevaporation. High vacuum then removed trace amounts of remaining solvent. The lipid film was rehydrated with 2 mL of an aqueous solution containing TRITON X-100™ detergent (Sigma Chemical Company, St. Louis, Mo.) (40 mM) and CaCl2 (10 mM) and then sonicated briefly to solubilize the lipids.
Next, the solution was immersed in a temperature-controlled bath at 40° C. and stirred with a magnetic stir bar. A stream of argon was passed over the reaction mixture to prevent CO2 absorption. A microelectrode (Metrohm 6.0224.100 pH 1-11/0-60° C. Idrolyte) was inserted through the top of the reaction vessel along with the dosing tube from the pH-stat. The reaction mixture was adjusted to a pH of 8.2 by addition of NaOH. Next, 0.2 units of PLA2 (naja naja venom, Sigma Chemical Company, St. Louis, Mo.) (0.1 units/mL) was added to the reaction and the reaction started. The pH was allowed to drop to 8.0 and held at this value by addition of NaOH. At pH 8, the fatty acids were almost completely ionized; therefore, the amount of base added as a function of time indicates cleavage of the ester bond.
In this Example, enzymatic activity was recorded using a pH-stat, which maintains a specific pH by adding base during the enzymatic reaction. During these assays, DMPC was hydrolyzed with an initial average rate of 6.19 E-08 (moles NaOH/minute) (std dev 6.72E-10).
Next, whether DMRPC inhibits PLA2 activity was investigated. Using DMPC (5 mM) as a substrate, DMRPC was added to the reaction mixture at varying concentrations. […] With a change in structure, different carbohydrate-based phospholipids could inhibit PLA2.

With “methyl-2,3-di-O-myristoyl-b-D-ribo-5-phosphocholine [DMRPC]” the “hydrolysis rate of DMPC with DMRPC added” value (DMPC (5 mM) as substrate, DMRPC added to the reaction mixture) was 6.32E-08 (std. dev. 1.36E-08) moles NaOH/minute, the “inhibition of PLA2 activity” value (DMPC (5 mM) as substrate, as much as 4 mM DMRPC added) was “did not yield a significant hydrolysis rate decrease” and the “initial average rate of hydrolysis by PLA2” value (lipid as substrate, Triton X-100 40 mM, CaCl2 10 mM, 40° C., pH 8.0, PLA2 0.1 units/mL) was “not hydrolyzed”.
